# Experiments:
# rice = assay: Test B flooded paddy test; assay type: in vivo, Oryza sativa; conditions: Flood, scale of 0 to 100 where 0 is no effect and 100 is complete control
# Method in brief: (§1)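 Plants grown to 2-leaf stage; pots flooded 3 cm above soil and compound applied directly into paddy water, depth held throughout. Visual rating against untreated controls after 13 to 15 days in greenhouse, 0 (no effect) to 100 (complete control).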
# oilseed rape = assay: Test C pre-/postemergence herbicide test; assay type: in vivo, Brassica napus; conditions: Preemergence; for Plant response rating, Oilseed Rape: 125 g ai/ha; for Plant response rating (scale of 0 to 100), Oilseed Rape: 250 g ai/ha
# Method in brief: (§2)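 Greenhouse plants scored visually against untreated controls 13–15 days after treatment, 0 = no effect, 100 = complete control. Test chemicals in a non-phytotoxic solvent with surfactant were applied either to soil (loam/sand) at planting or to foliage of 1- to 4-leaf plants, 2–18 cm tall.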
# lambsquarters = assay: Test C pre-/postemergence herbicide test; assay type: in vivo, Chenopodium album; conditions: Preemergence; for Plant response rating (scale of 0 to 100), Lambsquarters: 250 g ai/ha
# Method in brief: as §2
# blackgrass = assay: Test C pre-/postemergence herbicide test; assay type: in vivo, Alopecurus myosuroides; conditions: Preemergence; for Plant response rating (scale of 0 to 100), Blackgrass: 250 g ai/ha
# Method in brief: as §2
# pigweed = assay: Test C pre-/postemergence herbicide test; assay type: in vivo, Amaranthus retroflexus; conditions: Preemergence; for Plant response rating, Pigweed: 125 g ai/ha; for Plant response rating (scale of 0 to 100), Pigweed: 250 g ai/ha
# Method in brief: as §2
# giant foxtail = assay: Test A pre-/postemergence herbicide test; assay type: in vivo, Setaria faberii
# Method in brief: (§3)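 Visual 0–100 ratings (100 = complete control) made about 10 days after treatment, greenhouse-held plants compared with untreated controls. Treatments: postemergence sprays on one- to two-leaf plants (2–10 cm tall) and preemergence directed soil sprays after planting in loam–sand, chemicals formulated in non-phytotoxic solvent containing surfactant.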
# ducksalad = assay: Test B flooded paddy test; assay type: in vivo, Heteranthera limosa; conditions: Flood, scale of 0 to 100 where 0 is no effect and 100 is complete control
# Method in brief: as §1
# barnyardgrass [1] = assay: Test C pre-/postemergence herbicide test; assay type: in vivo, Echinochloa crus-galli; conditions: Preemergence; for Plant response rating (scale of 0 to 100; 0 is no effect, 100 is complete control), Barnyardgrass: 250 g ai/ha
# Method in brief: as §2
# crabgrass, large = assay: Test C pre-/postemergence herbicide test; assay type: in vivo, Digitaria sanguinalis; conditions: Preemergence; for Plant response rating, Crabgrass, Large: 125 g ai/ha; for Plant response rating (scale of 0 to 100), Crabgrass, Large: 250 g ai/ha
# Method in brief: as §2
# nutsedge, yellow = assay: Test C pre-/postemergence herbicide test; assay type: in vivo, Cyperus esculentus; conditions: Preemergence; for Plant response rating, Nutsedge, Yellow: 125 g ai/ha; for Plant response rating (scale of 0 to 100), Nutsedge, Yellow: 250 g ai/ha
# Method in brief: as §2
# barnyardgrass [2] = assay: Test B flooded paddy test; assay type: in vivo, Echinochloa crus-galli; conditions: Flood, scale of 0 to 100 where 0 is no effect and 100 is complete control
# Method in brief: as §1
# wheat = assay: Test A pre-/postemergence herbicide test; assay type: in vivo, Triticum aestivum
# Method in brief: as §3
# [3] = 31 g ai/ha, scale 0 to 100, 0 is no effect and 100 is complete control
# [4] = 62 g ai/ha, scale 0 to 100 (0 no effect, 100 complete control)
# [5] = scale 0 to 100 (0 no effect, 100 complete control)
# [6] = 125 g ai/ha, scale 0 to 100 (0 no effect, 100 complete control)
# [7] = Postemergence, 125 g ai/ha, 0 to 100 scale, 0 is no effect, 100 is complete control
# [8] = Postemergence, 500 g ai/ha, 0 to 100 scale (0 no effect, 100 complete control)
# [9] = Preemergence, 125 g ai/ha, 0 to 100 scale where 0 is no effect and 100 is complete control
# [10] = preemergence, 500 g ai/ha, 0 to 100 scale, 0 is no effect and 100 is complete control
# [11] = Postemergence, 1000 g ai/ha, 0 to 100 scale (0 no effect, 100 complete control)
structure (smiles),measurement,setting,value
O=C1NCC(c2cccc(C(F)(F)F)c2)C1C(=O)Nc1cccc(F)c1F (stereo not drawn) [Compound 241],"Plant response rating, Rice",rice; 250 g ai/ha,0
same,"Plant response rating, Rice",rice; 1000 g ai/ha,10
same,Oilseed Rape plant response rating,oilseed rape; [3],0
same,Oilseed Rape plant response rating,oilseed rape; [4],0
same,"Plant response rating, Oilseed Rape",oilseed rape; [5],70
same,"Plant response rating (scale of 0 to 100), Oilseed Rape",oilseed rape,85
same,Lambsquarters plant response rating,lambsquarters; [3],0
same,Lambsquarters plant response rating,lambsquarters; [4],0
same,"Plant response rating, Lambsquarters",lambsquarters; [6],10
same,"Plant response rating (scale of 0 to 100), Lambsquarters",lambsquarters,100
same,Blackgrass plant response rating,blackgrass; [3],50
same,"Plant response rating, Blackgrass","blackgrass; 62 g ai/ha, scale 0 to 100",70
same,"Plant response rating, Blackgrass",blackgrass; [6],80
same,"Plant response rating (scale of 0 to 100), Blackgrass",blackgrass,85
same,Pigweed plant response rating,pigweed; [3],0
same,Pigweed plant response rating,pigweed; [4],0
same,"Plant response rating, Pigweed",pigweed; [5],25
same,"Plant response rating (scale of 0 to 100), Pigweed",pigweed,70
same,"Plant response rating, Foxtail, Giant",giant foxtail; [7],80
same,"Plant response rating, Foxtail, Giant",giant foxtail; [8],90
same,"Plant response rating, Foxtail, Giant",giant foxtail; [9],90
same,"Plant response rating, Foxtail, Giant",giant foxtail; [10],90
same,"Plant response rating, Ducksalad",ducksalad; 250 g ai/ha,100
same,"Plant response rating, Ducksalad",ducksalad; 1000 g ai/ha,100
same,Barnyardgrass plant response rating,barnyardgrass [1]; [3],90
same,"Plant response rating, Barnyardgrass","barnyardgrass [1]; 62 g ai/ha, scale 0 to 100",95
same,"Plant response rating, Barnyardgrass",barnyardgrass [1]; [6],95
same,"Plant response rating (scale of 0 to 100; 0 is no effect, 100 is complete control), Barnyardgrass",barnyardgrass [1],95
same,"Crabgrass, Large plant response rating","crabgrass, large; [3]",95
same,"Crabgrass, Large plant response rating","crabgrass, large; [4]",95
same,"Plant response rating, Crabgrass, Large","crabgrass, large; [5]",98
same,"Plant response rating (scale of 0 to 100), Crabgrass, Large","crabgrass, large",100
same,"Nutsedge, Yellow plant response rating","nutsedge, yellow; [3]",0
same,"Nutsedge, Yellow plant response rating","nutsedge, yellow; [4]",0
same,"Plant response rating, Nutsedge, Yellow","nutsedge, yellow; [5]",0
same,"Plant response rating (scale of 0 to 100), Nutsedge, Yellow","nutsedge, yellow",0
same,"Plant response rating, Barnyardgrass",barnyardgrass [2]; 250 g ai/ha,55
same,"Plant response rating, Barnyardgrass",barnyardgrass [2]; 1000 g ai/ha,75
same,"Plant response rating, Wheat",wheat; [7],30
same,"Plant response rating, Wheat",wheat; [8],70
same,"Plant response rating, Wheat",wheat; [9],20
same,"Plant response rating, Wheat",wheat; [10],30
O=C(Nc1ccccc1F)C1C(=S)NCC1c1cccc(C(F)(F)F)c1 (stereo not drawn) [Compound 274],"Plant response rating, Rice",rice; 500 g ai/ha,0
same,Oilseed Rape plant response rating,oilseed rape; [3],0
same,Oilseed Rape plant response rating,oilseed rape; [4],0
same,"Plant response rating, Oilseed Rape",oilseed rape; [5],5
same,"Plant response rating (scale of 0 to 100), Oilseed Rape",oilseed rape,30
same,Lambsquarters plant response rating,lambsquarters; [4],0
same,"Plant response rating (scale of 0 to 100), Lambsquarters",lambsquarters,0
same,Blackgrass plant response rating,blackgrass; [3],0
same,Blackgrass plant response rating,blackgrass; [4],70
same,"Plant response rating, Blackgrass",blackgrass; [6],75
same,"Plant response rating (scale of 0 to 100), Blackgrass",blackgrass,90
same,Pigweed plant response rating,pigweed; [3],0
same,Pigweed plant response rating,pigweed; [4],0
same,"Plant response rating, Pigweed",pigweed; [5],0
same,"Plant response rating (scale of 0 to 100), Pigweed",pigweed,0
same,"Plant response rating, Foxtail, Giant",giant foxtail; [11],90
same,"Plant response rating, Foxtail, Giant","giant foxtail; preemergence, 1000 g ai/ha, 0 to 100 scale",90
same,"Plant response rating, Ducksalad",ducksalad; 500 g ai/ha,35
same,Barnyardgrass plant response rating,barnyardgrass [1]; [3],55
same,Barnyardgrass plant response rating,barnyardgrass [1]; [4],65
same,"Plant response rating, Barnyardgrass",barnyardgrass [1]; [6],85
same,"Plant response rating (scale of 0 to 100; 0 is no effect, 100 is complete control), Barnyardgrass",barnyardgrass [1],90
same,"Crabgrass, Large plant response rating","crabgrass, large; [3]",85
same,"Crabgrass, Large plant response rating","crabgrass, large; [4]",90
same,"Plant response rating, Crabgrass, Large","crabgrass, large; [5]",98
same,"Plant response rating (scale of 0 to 100), Crabgrass, Large","crabgrass, large",100
same,"Nutsedge, Yellow plant response rating","nutsedge, yellow; [3]",0
same,"Nutsedge, Yellow plant response rating","nutsedge, yellow; [4]",0
same,"Plant response rating, Nutsedge, Yellow","nutsedge, yellow; [5]",0
same,"Plant response rating (scale of 0 to 100), Nutsedge, Yellow","nutsedge, yellow",0
same,"Plant response rating, Barnyardgrass",barnyardgrass [2]; 500 g ai/ha,0
same,"Plant response rating, Wheat","wheat; Postemergence, 125 g ai/ha, visual rating on 0 to 100 scale (0 no effect, 100 complete control), approx. 10 days",0
same,"Plant response rating, Wheat",wheat; [11],40
